Data reported in patent publication US20120324604A1, “PESTICIDAL MIXTURES CONTAINING ISOXAZOLINE DERIVATIVES AND A FUNGICIDE” (priority 2010, published 2012).
Where “and” joins values, the source holds several entries; their conditions need not be identical. Equal entries are not always repeated.

Legend:
Type in all cases: cell-based
[1] = system: Glomerella lagenarium (syn. Colletotrichum lagenarium); experiment: Glomerella lagenarium (Anthracnose of Cucurbits) growth inhibition, microtiter plate, photometric; settings: alone
Protocol: Glomerella lagenarium (syn. Colletotrichum lagenarium), Anthracnose of Cucurbits:
(§1) Conidia of the fungus from cryogenic storage were directly mixed into nutrient broth (potato dextrose broth). After placing a (DMSO) solution of the test compounds into a microtiter plate (96-well format) the nutrient broth containing the fungal spores was added.

Gaeumannomyces graminis = Gaeumannomyces graminis growth inhibition, microtiter plate, photometric
Protocol: Mycelial fragments of the fungus from cryogenic storage were directly mixed into nutrient broth (potato dextrose broth). After placing a (DMSO) solution of the test compounds into a microliter plate (96-well format) the nutrient broth containing the fungal spores was added.

Rhizoctonia solani = Rhizoctonia solani (Foot Rot, Damping-Off) growth inhibition, microtiter plate, photometric
Protocol: Rhizoctonia solani (Foot Rot, Damping-Off):
Mycelial fragments of the fungus from cryogenic storage were directly mixed into nutrient broth (potato dextrose broth). After placing a (DMSO) solution of the test compounds into a microtiter plate (96-well format) the nutrient broth containing the fungal spores was added.

Septoria tritici = Septoria tritici (Leaf Blotch) growth inhibition, microtiter plate, photometric
Protocol: Septoria tritici (Leaf Blotch):
as §1

[2] = system: Mycosphaerella arachidis (syn. Cercospora arachidicola); experiment: Mycosphaerella arachidis (Brown Leaf Spot of Groundnut) growth inhibition, microtiter plate, photometric; settings: alone
Protocol: Mycosphaerella arachidis (syn. Cercospora arachidicola), Brown Leaf Spot of Groundnut (Peanut):
as §1

Fusarium culmorum = Fusarium culmorum (Root Rot) growth inhibition, microtiter plate, photometric; settings: alone, 2 PPM AI
Protocol: Fusarium culmorum (Root Rot):
as §1

Pythium ultimum = Pythium ultimum (Damping Off) growth inhibition, microtiter plate, photometric
Protocol: Pythium ultimum (Damping Off):
Mycelial fragments of the fungus, prepared from a fresh liquid culture, were directly mixed into nutrient broth (potato dextrose broth). After placing a (DMSO) solution of the test compounds into a microtiter plate (96-well format) the nutrient broth containing the fungal spores was added.

[3] = single compound at 0.0078125 ppm AI
[4] = single compound at 0.0625 ppm AI
[5] = single compound at 0.125 ppm AI

For `CO/C=C(\C(=O)OC)c1ccccc1Oc1cc(Oc2ccccc2C#N)ncn1` [Azoystrobin], the “AVERAGE DEAD IN %” value ([1]; 0.0078125 ppm AI) was 0%, the “AVERAGE DEAD IN %” value ([1]; 0.015625 ppm AI) was 50% and the “AVERAGE DEAD IN %” value ([1]; 0.03125 ppm AI) was 50%. For the same compound, the “AVERAGE DEAD IN %” value ([1]; 0.0625 ppm AI) was 70%.

In the case of `Cn1cc(C(=O)Nc2cccc3c2C2CCC3C2=C(Cl)Cl)c(C(F)F)n1` (stereo not drawn) [COMPOUND III], the “AVERAGE DEAD IN %” value (Gaeumannomyces graminis; single compound at 0.00390625 ppm AI) was 0%, the “AVERAGE DEAD IN %” value (Gaeumannomyces graminis; [3]) was 0% and the “AVERAGE DEAD IN %” value (Gaeumannomyces graminis; [4]) was 70% and 90%. For the same compound, the “AVERAGE DEAD IN %” value (Gaeumannomyces graminis; [5]) was 90%, the “AVERAGE DEAD IN %” value (Gaeumannomyces graminis; single compound at 0.25 ppm AI) was 100% and the “AVERAGE DEAD IN %” value (Gaeumannomyces graminis; single compound at 0.5 ppm AI) was 100%. For the same compound, the “AVERAGE DEAD IN %” value (Gaeumannomyces graminis; single compound at 1 ppm AI) was 100%, the “AVERAGE DEAD IN %” value (Gaeumannomyces graminis; single compound at 2 ppm AI) was 100% and the “AVERAGE DEAD IN %” value (Rhizoctonia solani; applied alone, 0.03125 ppm AI) was 90%. For the same compound, the “AVERAGE DEAD IN %” value (Septoria tritici; 0.125 ppm AI, alone) was 20%, the “AVERAGE DEAD IN %” value (Septoria tritici; 0.25 ppm AI, alone) was 70% and 50% and the “AVERAGE DEAD IN %” value (Septoria tritici; 0.5 ppm AI, alone) was 90%. The “AVERAGE DEAD IN % COMPOUND III” value (Septoria tritici; COMPOUND III alone, 0.0078125 ppm AI) was 0%, the “AVERAGE DEAD IN % COMPOUND III” value (Septoria tritici; COMPOUND III alone, 0.015625 ppm AI) was 0% and the “AVERAGE DEAD IN % COMPOUND III” value (Septoria tritici; COMPOUND III alone, 0.03125 ppm AI) was 0%. For the same compound, the “AVERAGE DEAD IN % COMPOUND III” value (Septoria tritici; COMPOUND III alone, 0.0625 ppm AI) was 0%, the “AVERAGE DEAD IN % COMPOUND III” value (Septoria tritici; COMPOUND III alone, 0.125 ppm AI) was 20% and the “AVERAGE DEAD IN % COMPOUND III” value (Septoria tritici; COMPOUND III alone, 0.25 ppm AI) was 50% and 70%. For the same compound, the “AVERAGE DEAD IN % COMPOUND III” value (Septoria tritici; COMPOUND III alone, 0.5 ppm AI) was 70%, the “AVERAGE DEAD IN % COMPOUND III” value (Septoria tritici; COMPOUND III alone, 1 ppm AI) was 90% and the “AVERAGE DEAD IN %” value ([2]; 0.0078125 ppm AI) was 0%. For the same compound, the “AVERAGE DEAD IN %” value ([2]; 0.015625 ppm AI) was 0%, the “AVERAGE DEAD IN %” value ([2]; 0.03125 ppm AI) was 20% and the “AVERAGE DEAD IN %” value ([2]; 0.0625 ppm AI) was 90%. For the same compound, the “AVERAGE DEAD IN %” value ([2]; 0.03125 PPM AI) was 70% and 50%, the “AVERAGE DEAD IN %” value ([2]; 0.0625 PPM AI) was 100% and 70% and 90% and the “AVERAGE DEAD IN %” value ([2]; 0.125 PPM AI) was 90%. The “AVERAGE DEAD IN %” value ([1]; 0.0078125 ppm AI) was 0%, the “AVERAGE DEAD IN %” value ([1]; 0.015625 ppm AI) was 0% and the “AVERAGE DEAD IN %” value ([1]; 0.125 ppm AI) was 50%.

For `CC(C1CC1)C(O)(Cn1cncn1)c1ccc(Cl)cc1` (stereo not drawn) [Cyproconazole], the “AVERAGE DEAD IN %” value (Gaeumannomyces graminis; single compound at 0.25 ppm AI) was 20%, the “AVERAGE DEAD IN %” value (Gaeumannomyces graminis; single compound at 0.5 ppm AI) was 50% and 90% and the “AVERAGE DEAD IN %” value (Gaeumannomyces graminis; single compound at 1 ppm AI) was 70%. The “AVERAGE DEAD IN %” value (Gaeumannomyces graminis; single compound at 2 ppm AI) was 90%, the “AVERAGE DEAD IN %” value (Rhizoctonia solani; applied alone, 0.25 ppm AI) was 20% and the “AVERAGE DEAD IN %” value (Rhizoctonia solani; applied alone, 2 ppm AI) was 70% and 100%. For the same compound, the “AVERAGE DEAD IN %” value (Fusarium culmorum) was 20%, the “AVERAGE DEAD IN %” value (Septoria tritici; 0.25 ppm AI, alone) was 20% and the “AVERAGE DEAD IN %” value (Septoria tritici; 0.5 ppm AI, alone) was 50%. For the same compound, the “AVERAGE DEAD IN %” value (Septoria tritici; 1 ppm AI, alone) was 70%, the “AVERAGE DEAD IN %” value (Septoria tritici; 2 ppm AI, alone) was 90% and the “AVERAGE DEAD IN % Cyproconazole” value (Septoria tritici; Cyproconazole alone, 0.5 ppm AI) was 50%. The “AVERAGE DEAD IN % Cyproconazole” value (Septoria tritici; Cyproconazole alone, 1 ppm AI) was 70%, the “AVERAGE DEAD IN % Cyproconazole” value (Septoria tritici; Cyproconazole alone, 2 ppm AI) was 90% and the “AVERAGE DEAD IN %” value (Septoria tritici; alone, 0.25 ppm AI) was 0%. For the same compound, the “AVERAGE DEAD IN %” value (Septoria tritici; alone, 0.5 ppm AI) was 50%, the “AVERAGE DEAD IN %” value (Septoria tritici; alone, 1 ppm AI) was 70% and the “AVERAGE DEAD IN %” value (Septoria tritici; alone, 2 ppm AI) was 70%. The “AVERAGE DEAD IN %” value ([2]; 0.125 ppm AI) was 70%, the “AVERAGE DEAD IN %” value ([2]; 0.0625 PPM AI) was 0% and the “AVERAGE DEAD IN %” value ([2]; 0.125 PPM AI) was 20%. The “AVERAGE DEAD IN %” value ([2]; 0.25 PPM AI) was 70% and 100% and the “AVERAGE DEAD IN %” value ([2]; 0.5 PPM AI) was 100%.

For `CC(C)C1C2CCC1c1c(NC(=O)c3cn(C)nc3C(F)F)cccc12` (stereo not drawn) [Isopyrazam, reference compound], the “AVERAGE DEAD IN %” value (Gaeumannomyces graminis; applied alone, 0.25 ppm AI) was 0%, the “AVERAGE DEAD IN %” value (Gaeumannomyces graminis; applied alone, 0.5 ppm AI) was 0% and the “AVERAGE DEAD IN %” value (Gaeumannomyces graminis; single compound at 0.5 ppm AI) was 0%. For the same compound, the “AVERAGE DEAD IN %” value (Gaeumannomyces graminis; single compound at 2 ppm AI) was 50%, the “AVERAGE DEAD IN %” value (Rhizoctonia solani; applied alone, 0.015625 ppm AI) was 0% and the “AVERAGE DEAD IN %” value (Rhizoctonia solani; applied alone, 0.125 ppm AI) was 70% and 90% and 100%. The “AVERAGE DEAD IN %” value (Rhizoctonia solani; applied alone, 0.25 ppm AI) was 90%, the “AVERAGE DEAD IN %” value (Rhizoctonia solani; [3]) was 0% and the “AVERAGE DEAD IN %” value (Rhizoctonia solani; single compound at 0.015625 ppm AI) was 0%. The “AVERAGE DEAD IN %” value (Rhizoctonia solani; single compound at 0.03125 ppm AI) was 0%, the “AVERAGE DEAD IN %” value (Rhizoctonia solani; [4]) was 50% and the “AVERAGE DEAD IN %” value (Rhizoctonia solani; [5]) was 70%. The “AVERAGE DEAD IN %” value (Rhizoctonia solani; single compound at 0.25 ppm AI) was 90%, the “AVERAGE DEAD IN %” value (Septoria tritici; 0.0625 ppm AI, alone) was 20% and the “AVERAGE DEAD IN %” value (Septoria tritici; 0.125 ppm AI, alone) was 50%. For the same compound, the “AVERAGE DEAD IN %” value (Septoria tritici; 0.25 ppm AI, alone) was 70%, the “AVERAGE DEAD IN %” value (Septoria tritici; 0.5 ppm AI, alone) was 90% and the “AVERAGE DEAD IN % Isopyrazam” value (Septoria tritici; Isopyrazam alone, 0.0625 ppm AI) was 20%. The “AVERAGE DEAD IN % Isopyrazam” value (Septoria tritici; Isopyrazam alone, 0.25 ppm AI) was 90% and 70%, the “AVERAGE DEAD IN % Isopyrazam” value (Septoria tritici; Isopyrazam alone, 0.5 ppm AI) was 90% and the “AVERAGE DEAD IN %” value (Septoria tritici; alone, 0.0078125 ppm AI) was 0%. For the same compound, the “AVERAGE DEAD IN %” value (Septoria tritici; alone, 0.015625 ppm AI) was 0%, the “AVERAGE DEAD IN %” value (Septoria tritici; alone, 0.03125 ppm AI) was 0% and the “AVERAGE DEAD IN %” value (Septoria tritici; alone, 0.0625 ppm AI) was 20%. The “AVERAGE DEAD IN %” value (Septoria tritici; alone, 0.125 ppm AI) was 50%, the “AVERAGE DEAD IN %” value (Septoria tritici; alone, 0.25 ppm AI) was 70% and the “AVERAGE DEAD IN %” value (Septoria tritici; alone, 0.5 ppm AI) was 90%. The “AVERAGE DEAD IN %” value ([2]; 0.0078125 ppm AI) was 0%, the “AVERAGE DEAD IN %” value ([2]; 0.015625 ppm AI) was 0% and the “AVERAGE DEAD IN %” value ([2]; 0.03125 ppm AI) was 20%. The “AVERAGE DEAD IN %” value ([2]; 0.0625 ppm AI) was 70% and 90%, the “AVERAGE DEAD IN %” value ([2]; 0.015625 PPM AI) was 0% and the “AVERAGE DEAD IN %” value ([2]; 0.03125 PPM AI) was 20%. The “AVERAGE DEAD IN %” value ([2]; 0.0625 PPM AI) was 50% and 70%.

For `C#CCOc1ccc(CCNC(=O)C(OCC#C)c2ccc(Cl)cc2)cc1OC` (stereo not drawn) [Mandipropamid, reference compound], the “AVERAGE DEAD IN %” value (Gaeumannomyces graminis; single compound at 0.25 ppm AI) was 0%, the “AVERAGE DEAD IN %” value (Gaeumannomyces graminis; single compound at 0.5 ppm AI) was 0% and the “AVERAGE DEAD IN %” value (Gaeumannomyces graminis; single compound at 1 ppm AI) was 0%.

With `COCC(=O)N(c1c(C)cccc1C)[C@H](C)C(=O)OC` [Mefenoxam, reference compound] the “AVERAGE DEAD IN %” value (Gaeumannomyces graminis; single compound at 0.25 ppm AI) was 0%, the “AVERAGE DEAD IN %” value (Gaeumannomyces graminis; single compound at 0.5 ppm AI) was 0% and the “AVERAGE DEAD IN %” value (Gaeumannomyces graminis; single compound at 1 ppm AI) was 0%. The “AVERAGE DEAD IN %” value (Pythium ultimum; [5]) was 50% and 70%, the “AVERAGE DEAD IN %” value (Pythium ultimum; single compound at 0.25 ppm AI) was 70% and 90% and the “AVERAGE DEAD IN %” value (Pythium ultimum; single compound at 0.5 ppm AI) was 90% and 100%. For the same compound, the “AVERAGE DEAD IN %” value (Pythium ultimum; single compound at 1 ppm AI) was 100% and the “AVERAGE DEAD IN %” value (Pythium ultimum; single compound at 2 ppm AI) was 100%.
